In article PMC10279755 (Nature Communications, 2023):
Like-named read-outs stand apart in the source and are kept apart here. One block for each molecule: values may come before it. Ends that are not written are not given here.

Tests used:
trypsin [1] = target: T1, trypsin (Sus scrofa, UniProt P00761); assay: Trypsin cleavage of switch peptide followed by MALDI-TOF MS; assay type: biochemical
T1 construct: purchased VWR (Radnor, PA, USA)
Procedure: We followed the kinetics of Lys residue cleavage by trypsin and functional peptide formation using MALDI-TOF mass spectrometry (MS). We tracked disappearance of the switch peptide peak and evolution of the intermediate or functional peptide peak (SYIGR or Ac-YIGSR; both have the same exact mass) after treatment with trypsin. […] After 3 h, the intensity of both signals was similar, and after 24 h the switch peptide signal disappeared completely, while the intermediate/functional peptide peak became dominant, indicating near-complete conversion.
Addition of the KRB unit created a new potential cleavage site for trypsin at the C-terminal side of the Arg residue (i.e., the R–KRB peptide bond). To ensure the desired response still occurred, i.e., cleavage of the K–SYIG peptide bond to remove the N-terminal Lys residue, we designed an experiment to follow the transformation of KSYIGRK as a representative peptide that contains two potential cleavage points, the desired K–SYIG peptide bond and the undesired R–K peptide bond. We treated this peptide with trypsin and followed bond cleavage at these two sites using MALDI-TOF MS. […] However, we envisioned that this undesired cleavage would not be a problem in cell studies because it would simply generate a KRB species that would be removed in washing steps.
Switch peptide solution (100 μL, 5 mg/mL in PBS) was mixed with 20 μL of a trypsin solution (0.25%) in a vial and placed at 37 °C in an incubator. Aliquots (2 μL) from each reaction solution were withdrawn at specific times, and trypsin was deactivated immediately by the addition of acetic acid (0.3 μL, 1 M in distilled water). Samples (0.8 μL) were then mixed with a matrix solution (0.8 μL, 0.02 M α-cyano-4-hydroxycinnamic acid dissolved in acetonitrile/methanol/water (1:1:1) with 0.1% formic acid) and deposited on a MALDI plate (Opti-TOF 384 Well, 123 × 81 mm). Samples were analyzed using a matrix-assisted laser desorption ionization−tandem time-of-flight mass spectrometer (4800 MALDI TOF/TOF, AB Sciex).

[2] = test system: HUVECs (cell surface laminin receptor integrin); assay: In vitro study of biological function using fluorescent probe: rhodamine B-labeled peptide attachment to HUVECs (CTCF); assay type: cell-based, human
Procedure: HUVECs were plated at a density of 0.1 million cells per well in a 24-well plate with 0.5 mL complete ECGM per well and cultured for 24 h, followed by washing with 1× PBS three times and the addition of 950 μL serum-free ECGM per well. Rhodamine B labeled peptide solution (50 μL in serum-free ECGM, 1 mM) was mixed with 0.05% trypsin (5 μL). The mixed solution was then added to each well for a total volume of 1005 μL. Cells were incubated with the mixed solution for various time periods. At different time points (1 h up to 30 h), the media was removed, and cells were washed with PBS three times. Fresh PBS (500 μL) was added to the wells, and the plate was visualized by bright-field and fluorescence microscopy (Nikon Eclipse Ti−U) with TRITC filter set. The magnification was 20×. Corrected total cell fluorescence (CTCF) intensity was estimated using the equation CTCF = integrated density − (area of selected cell) × (mean fluorescence of background). A rectangular drawing/selection tool in ImageJ was used to select a desired region with fluorescence, and its integrated density and area were measured. […] Cell counts were 30 for each group from three separate wells.
The corrected total cell fluorescence (CTCF) was calculated as follows:1 2 CTCF = integrated density – (area of selected cell × mean fluorescence of background readings)
Supplementary Table 1. Statistics Data of CTCF at each timepoint measured from fluorescence images of Ac-E5G2KSYIGR-KRB with trypsin, and control peptides mentioned […]
Comparison Mean q P value […]
Group comparisons are indicated as determined by a one -way analysis of variance (ANOVA) with a Student−Newman−Keuls comparisons post hoc test. *** indicates p < 0.001, ** indicates p < 0.01, * indicates p < 0.05, and ns indicates no significance among indicated

CD29 (integrin β1) = assay: Immunofluorescence co-localization with CD29; assay type: cell-based, human; conditions: HUVECs, 50 µM peptide, 24 h, fixed, confocal microscopy, done once
Procedure: HUVEC cells were seeded in an 8-chamber glass slide (Lab-Tek Chamber Slide) at a density of 30,000 cells per well in 0.4 mL complete ECGM media per well. After culturing for 24 h, cells were washed twice with 1× PBS. The cells were then incubated with 395 μL of serum-free ECGM media […] in the following groups: Blank (5 μL PBS), and 4 mM Ac-YIGSR-KRB (5 μL in PBS, final concentration 50 µM). After incubation for 24 h, the media was removed, and cells were washed with PBS three times. Cultured cells were then fixed in 10% formalin for 5 min, then washed three times with PBS for 5 min each. Slides were blocked for 1 h with 2% cold water fish skin gelatin (Sigma, Inc., St. Louis, MO, USA) and 0.2% triton-X100 solution. Slides were then incubated in conjugated primary antibody diluted in blocking solution overnight at room temperature, then washed with PBS five times for 10 min each. The antibody used was FITC Armenian hamster anti-mouse/rat CD29 at a 1:50 dilution (Biolegend, San Diego, CA, USA; Catalog number 102205, clone HMbeta1-1), validated by the manufacturer by immunofluorescent staining with flow cytometric analysis. Finally, slides were mounted with DAPI Fluoromount-G (SouthernBiotech, Birmingham, AL, USA). Images were then obtained using a Nikon A1 Confocal Microscope with NIS Elements Imaging Software (Melville, New York, USA).

trypsin [3] = assay: trypsin solution (0.25%) mixed with switch peptide solution in PBS; conditions: 37 °C, up to 24 h
HUVECs [4] = assay: Cell viability assay (CCK-8); assay type: cell-based, human
Procedure: HUVECs (ATCC catalog number PCS-100-010) were plated in a 96-well plate at a density of 5000 cells per well in 200 μL complete ECGM per well. After culturing for 24 h, the media was discarded and the cells were washed with 1X PBS three times before […] serum-containing ECGM media was added. Next, varying amounts of peptide stock solution (4 mM in PBS) were diluted to […] with PBS and added to the wells to make the final peptide concentrations ranging from 10 to 200 µM. After incubation for 24 h, cells were washed three times with PBS and then treated with serum-free ECGM media (100 μL). Next, 10 μL cell counting kit 8 solution (CCK-8, Dojindo, Rockville, MD) was added to each well. After incubation for another 3 h to allow for development of the CCK8 dye, absorbance was recorded at 450 and 750 nm using a BioTek Synergy Mx plate reader (BioTek, Winooski, VT). Worked-up data (absorbance at 750 nm subtracted from absorbance at 450 nm) were graphed using GraphPad InStat, version 3 (GraphPad Software, Inc., San Diego, CA). Mean values are reported together with the standard deviation (SD) representing the combination of 3 independent experimental runs with five replicates per experiment.

aminopeptidase N (APN) = assay: In vitro aminopeptidase N (APN) activity assay with Ala-MCA in HUVECs; assay type: cell-based, human; conditions: 100 μM Ala-MCA in PBS, curcumin 50 µM, 24 h, fluorescence λex 360 nm, λem 460 nm
Procedure: HUVEC cells were plated in a 96-well plate at a density of 5000 cells per well in 200 μL complete ECGM V2 media per well. After culturing for 24 h, cells were washed with 1X PBS two times. […] The release of fluorescent product 7-amino-4-methylcoumarin in the media was monitored on the plate reader (BioTek Cytation3 imaging reader) with λex of 360 nm and peak λem of 460 nm.

HUVECs [5] = test system: HUVECs; design: method as in earlier work; conditions: curcumin up to 100 µM, up to 72 h; ref Kumar et al. 1998; Do et al. 2022; Ouyang et al. 2019; Hosseini et al. 2019; Yuan et al. 2022; cited from earlier work
Excerpt: page 17: Reviewer #3 Specific Comment 1. I have one very major concern that should be experimentally addressed.

trypsin [6] = assay: trypsin (0.08 wt% total) in PBS buffer; conditions: 37 °C
[7] = switch peptide 5 mg/mL in PBS (100 μL) + 20 μL 0.25% trypsin, 37 °C

T1 sequence (P00761 9-231): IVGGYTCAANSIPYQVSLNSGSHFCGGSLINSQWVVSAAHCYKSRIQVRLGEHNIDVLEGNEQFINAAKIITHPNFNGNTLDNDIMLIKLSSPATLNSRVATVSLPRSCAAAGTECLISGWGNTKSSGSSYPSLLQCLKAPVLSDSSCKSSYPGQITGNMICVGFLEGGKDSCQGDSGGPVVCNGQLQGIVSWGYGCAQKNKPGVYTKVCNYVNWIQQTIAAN

time after which switch peptide signal (m/z = 764) started to decrease (trypsin [1]; [7]): 1 h
time at which intensity of switch peptide and intermediate/functional peptide signals was similar (trypsin [1]; [7]): 3 h
time at which switch peptide signal disappeared completely (near-complete conversion) (trypsin [1]; [7]): 24 h
Molecule: KSYIGR (also: lariat or depsi (positions not given here)) [non-functional depsipeptide; SYIG = Ser residue esterified with Ac-YIG; trypsin removes N-terminal Lys]

Molecule: Ac-YIGSR-KRB [rhodamine B-labeled functional peptide, positive control]
fluorescence signal on HUVECs after washing (in words) ([2]; without trypsin, 30 h): strong fluorescence
co-localization of rhodamine B-labeled peptide with anti-CD29-FITC stain (CD29 (integrin β1)): colocalized with integrin β1

Molecule: Ac-E5G2KSYIGRKRB (lariat or depsi) [Ac-E5G2KSYIGR-KRB, switch peptide labeled with the fluorescent probe rhodamine B]
fluorescence signal on HUVECs after washing (in words) ([2]; with trypsin, 1 h): negligible fluorescent signal
fluorescence signal on HUVECs after washing (in words) ([2]; with trypsin, 30 h): strong signal
fluorescence signal on HUVECs after washing (in words) ([2]; without trypsin, 30 h): no fluorescence signal

cleaved bond (trypsin [3]): Lys-Ser, 1 h
Molecule: KSYIGR, where the SYIG unit indicates a Ser residue esterified with the Ac-YIG peptide sequence (Ac = acetyl)

Molecule: Ac-YIGSR [functional cell-adhesive pentapeptide derived from the ECM protein laminin, reference compound]
cytotoxicity in cell viability studies (HUVECs [4]; HUVECs, CCK-8, peptide up to 200 µM, 24 h): no cytotoxicity

Molecule: Ac-KYIGR-KRB [fluorescence labeled peptide with YIG on the side chain, cannot undergo a switch; negative control]
fluorescence signal on HUVECs after washing (in words) ([2]; with trypsin, 30 h): no fluorescence
fluorescence signal on HUVECs after washing (in words) ([2]; without trypsin, 30 h): no fluorescence

Molecule: COc1cc(/C=C/C(=O)CC(=O)/C=C/c2ccc(O)c(OC)c2)ccc1O [curcumin]
APN activity remaining with inhibitor (aminopeptidase N (APN)): ~ 25%
viability of HUVECs (HUVECs [5]): > 80%

cleaved bond (trypsin [6]): K-S and R-K
Molecule: Ac-KSYIGRK

trypsin cleavage at K–SYIG versus R–K peptide bond (trypsin [1]; trypsin, cleavage at either site but not both simultaneously): approximately the same rate
Molecule: Ac-KSYIGRK (also: lariat or depsi (positions not given here))

B1: trypsin: enzyme that cleaves peptide bonds on the C-terminal side of positively charged residues (protein, UniProt P00760 24-246, looked up)
Serine protease 1: IVGGYTCGANTVPYQVSLNSGYHFCGGSLINSQWVVSAAHCYKSGIQVRLGEDNINVVEGNEQFISASKSIVHPSYNSNTLNNDIMLIKLKSAASLNSRVASISLPTSCASAGTQCLISGWGNTKSSGTSYPDVLKCLKAPILSDSSCKSAYPGQITSNMFCAGYLEGGKDSCQGDSGGPVVCSGKLQGIVSWGSGCAQKNKPGVYTKVCNYVSWIKQTIASN
cytotoxicity in cell viability studies (HUVECs [4]): no cytotoxicity
